From ChEMBL document CHEMBL1201862, “PubChem BioAssay data set” (2004)
Active and inactive are the calls of the source.

Columns and labels:
[1] = growth suppression of PTEN-null colon cells, dose response, cell-based, HCT116 PTEN knockout (AID 1047); format: functional;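 also: HCT116 colon tumor cells with PTEN knocked out; cells exposed to compound for 60 hours before readout; potency for loss of cell viability measured by luminescence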
Ephrin type-A receptor 4 = Ephrin type-A receptor 4 (Mus musculus, UniProt Q03137); assay: inhibitors of EphA4 binding to KYL peptide, primary screen, biochemical, colorimetric, mouse EphA4 (AID 689); format: functional
Sequence of Ephrin type-A receptor 4 (Q03137 whole entry): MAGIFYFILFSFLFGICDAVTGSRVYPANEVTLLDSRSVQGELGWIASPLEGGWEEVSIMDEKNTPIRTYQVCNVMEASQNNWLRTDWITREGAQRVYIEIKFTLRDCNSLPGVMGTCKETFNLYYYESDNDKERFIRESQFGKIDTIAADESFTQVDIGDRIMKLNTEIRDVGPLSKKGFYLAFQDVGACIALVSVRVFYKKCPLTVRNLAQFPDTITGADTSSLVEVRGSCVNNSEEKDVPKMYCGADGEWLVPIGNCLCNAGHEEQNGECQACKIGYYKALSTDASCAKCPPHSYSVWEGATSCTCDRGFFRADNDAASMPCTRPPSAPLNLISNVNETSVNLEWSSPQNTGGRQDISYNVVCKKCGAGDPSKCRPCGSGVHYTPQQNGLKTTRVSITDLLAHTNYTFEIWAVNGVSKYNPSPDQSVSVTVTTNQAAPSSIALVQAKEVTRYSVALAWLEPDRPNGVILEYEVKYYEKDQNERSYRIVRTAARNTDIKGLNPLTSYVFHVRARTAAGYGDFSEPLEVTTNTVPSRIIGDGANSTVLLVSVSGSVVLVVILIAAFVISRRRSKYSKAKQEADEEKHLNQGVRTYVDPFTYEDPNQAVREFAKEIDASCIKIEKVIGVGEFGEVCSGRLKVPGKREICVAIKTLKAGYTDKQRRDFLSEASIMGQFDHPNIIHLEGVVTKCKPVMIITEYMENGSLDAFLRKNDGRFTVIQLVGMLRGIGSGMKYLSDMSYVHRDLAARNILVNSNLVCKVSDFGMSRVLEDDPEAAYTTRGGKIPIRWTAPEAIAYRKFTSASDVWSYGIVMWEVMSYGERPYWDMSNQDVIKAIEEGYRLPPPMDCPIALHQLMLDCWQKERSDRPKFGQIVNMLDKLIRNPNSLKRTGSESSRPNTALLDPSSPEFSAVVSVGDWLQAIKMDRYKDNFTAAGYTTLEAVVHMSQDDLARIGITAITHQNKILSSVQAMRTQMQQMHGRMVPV

[2] = growth suppression of beta-catenin-knockout colon cells, dose response, cell-based, HCT116, human colon tumor (AID 1045); format: functional;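 also: HCT116 colon tumor cells with beta catenin knocked out; cells exposed to compound for 60 hours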
Orexin receptor type 2 [3] = biological target: T1, Orexin receptor type 2 (Homo sapiens, UniProt O43614); assay: Counterscreen assay for antagonists of the orexin 1 receptor (OX1R; HCRTR1): Homogeneous Time Resolved Fluorescence (HTRF)-based cell-based dose response assay for antagonists of the orexin 2 receptor (OX2R; HCRTR2), run by assay provider.; format: functional
T1 sequence (O43614 whole entry): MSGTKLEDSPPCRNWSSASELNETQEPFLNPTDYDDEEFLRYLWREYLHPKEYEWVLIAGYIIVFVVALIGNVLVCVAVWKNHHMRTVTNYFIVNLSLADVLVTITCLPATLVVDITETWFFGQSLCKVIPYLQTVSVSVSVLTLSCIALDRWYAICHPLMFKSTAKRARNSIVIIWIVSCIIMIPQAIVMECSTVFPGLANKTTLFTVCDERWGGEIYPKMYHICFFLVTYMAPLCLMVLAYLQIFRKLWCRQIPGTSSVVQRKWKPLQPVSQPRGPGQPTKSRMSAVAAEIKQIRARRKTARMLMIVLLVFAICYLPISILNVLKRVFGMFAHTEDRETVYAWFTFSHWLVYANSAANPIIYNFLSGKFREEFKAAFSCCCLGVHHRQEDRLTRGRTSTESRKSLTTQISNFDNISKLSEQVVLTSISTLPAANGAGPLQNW

CHO-K1 = assay: (§1) Counterscreen for antagonists of the orexin 1 receptor (OX1R; HCRTR1): Homogeneous time resolved fluorescence (HTRF)-based cell-based dose response assay to identify antagonists of the parental CHO-K1 cell line. [Related pubchem assays (depositor defined):AID434989, AID435008, AID463079, AID485270, AID492963, AID492964, AID492965, AID493232, AID504699, AID504701]; format: functional; settings: Cricetulus griseus
[4] = as §1, with “Fluorescence-based” for “Homogeneous time resolved fluorescence (HTRF)-based”, “cell-based high throughput” for “cell-based”, “CHO” for “CHO-K1”; format: functional
[5] = biological target: T2, Orexin/Hypocretin receptor type 1 (Homo sapiens, UniProt O43613); assay: (§2) Fluorescence-based cell-based high throughput dose response assay for antagonists of the orexin 1 receptor (OX1R; HCRTR1). [Related pubchem assays (depositor defined):AID434989, AID435008, AID463079, AID485270, AID492963, AID492964, AID492965, AID493232, AID504717, AID504718]; format: functional
T2 sequence (O43613 whole entry): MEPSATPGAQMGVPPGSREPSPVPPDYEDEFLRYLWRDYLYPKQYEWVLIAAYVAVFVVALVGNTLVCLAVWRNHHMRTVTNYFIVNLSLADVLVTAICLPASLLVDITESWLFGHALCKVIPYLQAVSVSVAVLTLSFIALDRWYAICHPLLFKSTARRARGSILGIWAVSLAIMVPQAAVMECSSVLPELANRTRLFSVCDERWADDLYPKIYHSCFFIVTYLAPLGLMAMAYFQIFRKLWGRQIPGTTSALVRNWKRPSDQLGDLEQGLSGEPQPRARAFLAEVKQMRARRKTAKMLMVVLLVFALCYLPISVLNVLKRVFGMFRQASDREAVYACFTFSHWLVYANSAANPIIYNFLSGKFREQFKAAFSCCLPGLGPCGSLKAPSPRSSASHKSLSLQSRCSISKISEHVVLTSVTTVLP

[6] = biological target: T2, Orexin/Hypocretin receptor type 1; assay: as §2, with “Homogeneous Time Resolved Fluorescence (HTRF)-based” for “Fluorescence-based”; format: functional
Orexin receptor type 2 [7] = biological target: T1, Orexin receptor type 2; assay: Counterscreen assay for antagonists of the orexin 1 receptor (OX1R; HCRTR1): Fluorescence-based cell-based dose response assay for antagonists of the orexin 2 receptor (OX2R; HCRTR2), run by assay provider.; format: functional
[8] = biological target: T3, Oxysterols receptor LXR-beta (Homo sapiens, UniProt P55055); format: functional, cell-based;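 also: Cell-based luminescence dose-response assay of agonist activity at LXR, run as a confirmatory counterscreen to a daf-12 agonist screen; HEK293 cells with Gal4-LXR fusion and GAL4-driven luciferase reporter; agonist potency from rising luciferase signal of a Gal4-LXR reporter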
T3 sequence (P55055 whole entry): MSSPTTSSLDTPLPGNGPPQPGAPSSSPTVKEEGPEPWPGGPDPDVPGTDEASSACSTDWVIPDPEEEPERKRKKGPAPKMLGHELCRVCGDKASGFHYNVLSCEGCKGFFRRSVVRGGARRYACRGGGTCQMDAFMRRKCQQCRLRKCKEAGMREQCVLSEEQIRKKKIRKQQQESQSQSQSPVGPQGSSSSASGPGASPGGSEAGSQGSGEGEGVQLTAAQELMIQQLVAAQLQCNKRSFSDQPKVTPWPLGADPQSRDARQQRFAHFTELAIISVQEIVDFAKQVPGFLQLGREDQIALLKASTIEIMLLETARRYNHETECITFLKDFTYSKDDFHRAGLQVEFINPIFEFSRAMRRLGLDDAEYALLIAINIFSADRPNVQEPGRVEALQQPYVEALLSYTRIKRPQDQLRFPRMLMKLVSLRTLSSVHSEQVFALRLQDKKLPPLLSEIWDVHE

Caspase-6 = Caspase-6 (Homo sapiens, UniProt P55212); assay: human caspase-6 inhibitors, dose response, biochemical, VEID-R110 fluorescence, cherry-pick (AID 720632)
Sequence of Caspase-6 (P55212 24-179 limits assumed): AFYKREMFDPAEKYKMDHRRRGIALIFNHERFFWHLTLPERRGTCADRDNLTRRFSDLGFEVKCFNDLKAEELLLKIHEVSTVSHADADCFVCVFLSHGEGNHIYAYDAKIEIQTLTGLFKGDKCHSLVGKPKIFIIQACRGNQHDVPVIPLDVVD
Sequence of Caspase-6 (P55212 194-293 limits assumed): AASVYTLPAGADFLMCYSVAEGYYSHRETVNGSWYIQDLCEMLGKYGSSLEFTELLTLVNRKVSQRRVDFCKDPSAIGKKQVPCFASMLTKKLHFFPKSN

[9] = inhibitors of Vif binding to APOBEC3G peptide, primary screen, biochemical, TR-FRET, GST-Vif 1-94, biotin-A3G peptide, dose response retest (AID 1117319); format: functional;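 also: TR-FRET signal of purified GST-Vif binding a biotinylated A3G peptide; inhibitors lower the FRET signal by blocking Vif and A3G binding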
A549 = assay: A549 cell toxicity, dose response, cytotoxicity control, plate reader, cherry-pick samples (AID 687028); format: functional, cell-based; settings: Homo sapiens
Vero = assay: Vero cell toxicity, dose response, cytotoxicity control, plate reader, cherry-pick samples (AID 687020); format: functional, cell-based; settings: Chlorocebus sabaeus
Kallikrein-7 = Kallikrein-7 (Homo sapiens, UniProt P49862); assay: Fluorescence Intensity-based biochemical primary high throughput dose response assay to identify activators of kallikrein-7 (K7) zymogen.
Sequence of Kallikrein-7 (P49862 whole entry): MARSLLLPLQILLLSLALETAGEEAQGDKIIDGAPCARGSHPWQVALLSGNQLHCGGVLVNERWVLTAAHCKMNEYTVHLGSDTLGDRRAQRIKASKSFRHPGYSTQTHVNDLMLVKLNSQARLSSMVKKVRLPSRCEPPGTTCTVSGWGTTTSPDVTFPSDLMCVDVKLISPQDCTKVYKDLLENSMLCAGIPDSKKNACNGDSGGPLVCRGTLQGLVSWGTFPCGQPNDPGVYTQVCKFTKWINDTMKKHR

[10] = LGR2 antagonists, dose response, cell-based, HEK293, CRE-luciferase reporter, cherry pick, set 2 (AID 743343); format: functional;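 also: transfected cells were stimulated with diluted bursicon conditioned medium after compound addition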
[11] = MC4R antagonists, dose response, counter-screen for LGR2 antagonist project, cell-based, plate reader, cherry pick (AID 743444); format: functional;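 also: transfected HEK 293 cells stimulated with alpha-MSH peptide; potency of inhibitors of the alpha-MSH evoked signal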
Prothrombin = Prothrombin (Homo sapiens, UniProt P00734); assay: Thrombin 1536 HTS Dose Response Confirmation. [Related pubchem assays: 1046 (Thrombin 1536 HTS; hits were confirmed in this assay)]; format: functional
[12] = cytotoxicity in COV434 cells, dose response, cytotoxicity control for PAX8 inhibitor project, cell-based, plate reader, dry powder, SA7 (AID 743145); format: functional
[13] = PAX2 cell-based inhibition, dose response, selectivity assay for PAX8 inhibitor project, plate reader, dry powder samples (AID 743048); format: functional;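 also: HEK293 cells carrying a WT1 promoter luciferase reporter driven by expressed Pax2; potency is for inhibition of Pax2 driven reporter signal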
[14] = cytotoxicity in COV362 ovarian cancer cells, dose response, cytotoxicity control for PAX8 inhibitor project, cell-based, plate reader, dry powder, SA12 (AID 743144); format: functional
[15] = A2780 ovarian cancer cell cytotoxicity, dose response, cytotoxicity control, plate reader, dry powder samples (AID 743046); format: functional, cell-based
[16] = IGROV1 ovarian cancer cell cytotoxicity, dose response, PAX8 inhibitor project, plate reader, dry powder samples (AID 743043); format: functional, cell-based; settings: IGROV-1

Q: For O=C(Nc1cccc2c1CCCC2)c1cc([N+](=O)[O-])ccc1Cl, which EC50 [1] is on record?
A: 7.64 µM (active)

Q: What about the IC50 (Ephrin type-A receptor 4) of the same compound?
A: > 100 µM (not active)

Q: And the EC50 [2]?
A: 6.84 µM (active)

Q: What does the source list for Nn1c(-c2cccs2)nc2sc3c(c2c1=O)CCCC3?
A: EC50 (cells): > 67.5 µM (inactive); IC50 (Orexin receptor type 2 [3]): > 50 µM (inactive); IC50 (CHO-K1): > 66.2 µM (inactive); IC50 [4]: > 49.7 µM (inactive); IC50 [5]: 18.1 µM (inactive); IC50 [6]: 2.98 µM (active); IC50 (Orexin receptor type 2 [7]): 31.2 µM (inactive); EC50 [8]: > 67.5 µM (inactive)

Q: Which AC50 (Caspase-6) does the source give for CCOc1ccccc1NC(=O)Cc1cccs1 here?
A: 16.7 µM (active)

Q: Which IC50 [9] does the source give for COc1ccc(/C=N/NC2=NC(=O)C(c3ccccc3)S2)c(OC)c1 (stereo not given) here?
A: > 100 µM (active)

Q: For CCCOc1ccc(-c2nn(-c3ccccc3)cc2/C=C2\SC(=S)N(C3CCS(=O)(=O)C3)C2=O)cc1 (stereo not given), which IC50 (Ephrin type-A receptor 4) is on record?
A: 12 µM (active)

Q: With CCC(C)[C@H](NC(=O)[C@@H]1Cc2ccccc2CN1)C(=O)NCc1ccc(C)cc1 (stereo not given in full) as the compound, how does the AC50 (A549) read?
A: 20.9 µM (active)

Q: And the AC50 (Vero)?
A: 29.5 µM (active)

Q: For CC(=O)Nc1cc2c3c(cccc3c1)-c1ccccc1-2, which EC50 (Kallikrein-7) is on record?
A: 8.84 µM (active)

Q: What does the source list for O=C(NCCc1ccccc1)c1ccc2c(c1)OCO2?
A: AC50 [10]: 2.31 µM (active); AC50 [11]: 2.88 µM (active)

Q: Which IC50 (Prothrombin) does the source give for CSc1nc(-c2ccccc2)nn1C(=O)c1ccc(C)cc1 here?
A: 0.028 µM (active)

Q: With N#C[C@H]1[C@@H](c2ccc(C#Cc3cccc(F)c3)cc2)[C@@H](CO)N1C(=O)C1CCCC1 as the compound, how does the AC50 [12] read?
A: > 70 µM (inactive)

Q: What about the AC50 [13] of the same compound?
A: > 70 µM (inactive)

Q: What about the AC50 [14] of the same compound?
A: > 70 µM (inactive)

Q: What about the AC50 [15] of the same compound?
A: 17.6 µM (active)

Q: What about the AC50 [16] of the same compound?
A: 10.6 µM (active)
